For data set [1], the system named is hepatocellular carcinoma cell lines (Huh-7, SK-Hep-1, HA22T/VGH cell lines). The following applies: cited from earlier work.
For another data set, the system named is MCF-7 breast cancer. Put plainly: MTT cytotoxicity assay, MCF-7. The following applies: Homo sapiens, MCF7, MCF-7 cell line, 72 h, mean ± s.d., three replicates. Type of data set: cell-based, human. The protocol:
(§1) The cytotoxic activities against the cancer cell lines KB epidermal carcinoma, A549 lung cancer, HepG2 liver cancer and MCF-7 breast cancer, as well as the healthy cell line HEK293 embryonic kidney cells, were determined using the 3-(4,5-dimethylthiazol-2-yl)-2,5-diphenyltetrazolium bromide (MTT) assay. Briefly, cell lines were grown into log phase at 37°C, 5% CO2 in DMEM-Dulbecco's modified Eagle's medium and 10% fetal bovine serum. A concentration of 1 × 10^4–3 × 10^4 cells ml^−1 was prepared depending on the cell line used for the experiment by adding 10 µl of the sample and 190 µl of the cell suspension, followed by incubation under standard conditions. After 72 h of culture, 10 µl of MTT (5 mg ml^−1) was added and incubated for 4 h. Dimethyl sulfoxide (100 µl) was added to dissolve formazan crystals and the density was measured at 540 nm using a BioTek spectrophotometer. The inhibition of cell growth was expressed as IC50 (the half-maximal inhibitory concentration) value.
In general terms: Formazan colour is commonly taken as a measure of viable cells.

The test system of data set [2] is S. aureus (MRSA; methicillin-resistant strain). The arrangement: method as in PMID 22494050. Conditions: cited from earlier work.
Data set [3] deals with HEK293 embryonic kidney cells. The data set is described as follows: MTT cytotoxicity assay, HEK293. Type of data set: cell-based, human. The following applies: Homo sapiens, HEK293 healthy cell line, 72 h, mean ± s.d., three replicates. The protocol: as §1, with “value. Ellipticine was used as reference.” for “value.”
The test system of another data set is Escherichia coli. The data set is described as follows: Anti-microbial activity assay, E. coli. Type of data set: cell-based. The protocol:
Bacterial and fungal strains (Bacillus subtilis, Staphylococcus aureus, Lactobacillus fermentum, Escherichia coli, Pseudomonas aeruginosa, Salmonella enterica and Candida albicans) were activated on TSA (Tryptic Soy Agar) and SA (Sabouraud–4% dextrose agar) media, respectively. Before the experiment, the microbial strains were grown in the corresponding liquid media at a concentration of approximately 5 × 10^5 CFU ml^−1 for bacteria and 1 × 10^3 CFU ml^−1 for fungi. The microbial suspension (190 µl) was mixed with 10 µl of the test sample, which was serially diluted twofold, and the microplate was incubated at 37°C for 16–24 h.

The next data set deals with T1, α-glucosidase (Saccharomyces cerevisiae, UniProt P53341).
T1 construct: purchased Sigma
Put plainly: Alpha-glucosidase inhibitory assay. Type of data set: biochemical. The protocol:
Beta-mangostin and α-mangostin were purchased from Chengdu Biopurify Phytochemicals, Ltd. Recombinant Escherichia coli (BL21 (DE3)) strains were kindly provided by Prof. Jae Kyung Sohng, Sun Moon University, Korea. The cell lines and microorganisms were derived from the American Type Culture Collection (ATCC). α-Glucosidase (CAS no. 900-42-7, Sigma) was from Saccharomyces cerevisiae. All chemicals were of analytical grade and available.
The α-glucosidase inhibitory activity assay was conducted using a reaction mixture containing phosphate buffer (100 mM; pH 6.8), p-nitrophenyl-α-D-glucopyranoside (pNPG) (2.5 mM) and samples at various concentrations. The reactions were initiated by adding α-glucosidase (0.2 U ml^−1), incubated at 37°C for 30 min and quenched by adding Na2CO3 (50 mM). The absorbance of the reaction was determined using a BioTek instrument at a wavelength of 410 nm (A).

Where two headings read alike, the source gives them in different places. Where only a bound is given, the exact number is not on record here.

T1 sequence (P53341 whole entry): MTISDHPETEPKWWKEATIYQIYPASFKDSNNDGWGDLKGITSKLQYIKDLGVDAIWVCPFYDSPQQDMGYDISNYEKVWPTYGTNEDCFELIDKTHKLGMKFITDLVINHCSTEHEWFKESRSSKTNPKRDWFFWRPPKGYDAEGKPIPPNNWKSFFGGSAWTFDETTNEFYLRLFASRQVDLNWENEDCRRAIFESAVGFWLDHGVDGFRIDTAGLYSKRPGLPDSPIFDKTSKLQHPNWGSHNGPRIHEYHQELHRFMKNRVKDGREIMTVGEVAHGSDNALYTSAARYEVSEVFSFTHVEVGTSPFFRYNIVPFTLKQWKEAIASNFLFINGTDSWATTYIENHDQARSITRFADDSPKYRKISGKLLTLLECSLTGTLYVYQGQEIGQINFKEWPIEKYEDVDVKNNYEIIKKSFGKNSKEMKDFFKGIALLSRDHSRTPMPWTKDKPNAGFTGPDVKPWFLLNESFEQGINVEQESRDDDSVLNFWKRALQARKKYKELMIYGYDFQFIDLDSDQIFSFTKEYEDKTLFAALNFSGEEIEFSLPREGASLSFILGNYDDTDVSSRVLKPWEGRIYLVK

The term IC50 denotes the point on the concentration scale where inhibition reaches its midpoint. A high value points to a need for much substance. The term MIC denotes the smallest concentration in the dilution series that meets the test's criterion for growth inhibition. For `COc1cc2oc3cc(O)c(OC)c(CC=C(C)C)c3c(=O)c2c(O)c1CC=C(C)C` [β-mangostin], the “cytotoxicity or cell cycle suppression” value in data set [1] was “did not cause cytotoxicity or cell cycle suppression”. The IC50 was 18 ± 8.1 µM with MCF-7 breast cancer, 15.6 ± 6.5 µM in data set [3], greater than 32 µg/mL in the data set with Escherichia coli (Escherichia coli) and 27.6 ± 4.6 µM against α-glucosidase. Besides, the MIC was greater than 200 µg/mL in data set [2]; “greater than 32 μg ml^−1” against Escherichia coli; greater than 32 µg/mL in the data set with Escherichia coli (Escherichia coli, read-out: MIC). Also, the inhibitory potency ratio at α-glucosidase (compared with the positive control acarbose) was 7.55.

(Values after PMC10427817, “Bioactivities of β-mangostin and its new glycoside derivatives synthesized by enzymatic reactions” (Royal Society Open Science, 2023).)
